What was measured:
Sitophilus oryzae [1] = experiment: Insecticidal activity against Sitophilus oryzae (rice weevil) assessed as mortality at 2000 ug/g after 5 days by food poison technique relative to acetone-treated control; format: functional
Sitophilus oryzae [2] = experiment: Insecticidal activity against Sitophilus oryzae (rice weevil) assessed as mortality at 2000 ug/g after 15 days by food poison technique relative to acetone-treated control; format: functional
Triticum aestivum [3] = experiment: Phytotoxicity in Triticum aestivum (wheat) assessed as root growth at 500 ug/ml pre-soaked for 30 min measured after 96 hr relative to acetone-treated control; format: organism-based; details: in vivo
Sitophilus oryzae [4] = experiment: Insecticidal activity against Sitophilus oryzae (rice weevil) assessed as mortality after 20 days by food poison technique; format: functional
Sitophilus oryzae [5] = experiment: Insecticidal activity against Sitophilus oryzae (rice weevil) assessed as mortality at 600 ug/g after 15 days by food poison technique relative to acetone-treated control; format: functional
Triticum aestivum [6] = experiment: Phytotoxicity in Triticum aestivum (wheat) assessed as root growth at 500 ug/ml pre-soaked for 60 min measured after 96 hr relative to acetone-treated control; format: organism-based; details: in vivo
Triticum aestivum [7] = experiment: Phytotoxicity in Triticum aestivum (wheat) assessed as shoot growth at 500 ug/ml pre-soaked for 60 min measured after 120 hr relative to acetone-treated control; format: organism-based; details: in vivo
Sitophilus oryzae [8] = experiment: Insecticidal activity against Sitophilus oryzae (rice weevil) assessed as mortality at 200 ug/g after 20 days by food poison technique relative to acetone-treated control; format: functional
Triticum aestivum [9] = experiment: Phytotoxicity in Triticum aestivum (wheat) assessed as germination rate at 500 ug/ml pre-soaked for 60 min measured after 96 hr relative to acetone-treated control; format: organism-based; details: in vivo
Sitophilus oryzae [10] = experiment: Insecticidal activity against Sitophilus oryzae (rice weevil) assessed as mortality at 3000 ug/g after 5 days by food poison technique relative to acetone-treated control; format: functional
Sitophilus oryzae [11] = experiment: Insecticidal activity against Sitophilus oryzae (rice weevil) assessed as mortality at 400 ug/g after 15 days by food poison technique relative to acetone-treated control; format: functional
Sitophilus oryzae [12] = experiment: Insecticidal activity against Sitophilus oryzae (rice weevil) assessed as mortality at 3000 ug/g after 20 days by food poison technique relative to acetone-treated control; format: functional
Sitophilus oryzae [13] = experiment: Insecticidal activity against Sitophilus oryzae (rice weevil) assessed as mortality after 15 days by food poison technique; format: functional
Sitophilus oryzae [14] = experiment: Insecticidal activity against Sitophilus oryzae (rice weevil) assessed as mortality at 200 ug/g after 15 days by food poison technique relative to acetone-treated control; format: functional
Triticum aestivum [15] = experiment: Phytotoxicity in Triticum aestivum (wheat) assessed as germination rate at 500 ug/ml pre-soaked for 30 min measured after 48 hr relative to acetone-treated control; format: organism-based; details: in vivo
Sitophilus oryzae [16] = experiment: Insecticidal activity against Sitophilus oryzae (rice weevil) assessed as mortality at 600 ug/g after 20 days by food poison technique relative to acetone-treated control; format: functional
Sitophilus oryzae [17] = experiment: Insecticidal activity against Sitophilus oryzae (rice weevil) assessed as mortality at 0.05 ug/g after 10 days by food poison technique relative to acetone-treated control; format: functional
Sitophilus oryzae [18] = experiment: Insecticidal activity against Sitophilus oryzae (rice weevil) assessed as mortality at 1000 ug/g after 5 days by food poison technique relative to acetone-treated control; format: functional
Triticum aestivum [19] = experiment: Phytotoxicity in Triticum aestivum (wheat) assessed as shoot growth at 500 ug/ml pre-soaked for 30 min measured after 72 hr relative to acetone-treated control; format: organism-based; details: in vivo
Sitophilus oryzae [20] = experiment: Repellent activity against Sitophilus oryzae (rice weevil) assessed as settling responses at 100 ug/g preincubated for 12 hr prior to inoculation measured after 24 hr by food preference chamber method (reference value: 49.45 +/- 2.65 %); format: functional
Triticum aestivum [21] = experiment: Phytotoxicity in Triticum aestivum (wheat) assessed as root growth at 500 ug/ml pre-soaked for 60 min measured after 120 hr relative to acetone-treated control; format: organism-based; details: in vivo
Sitophilus oryzae [22] = experiment: Insecticidal activity against Sitophilus oryzae (rice weevil) assessed as mortality at 0.05 ug/g after 15 days by food poison technique relative to acetone-treated control; format: functional
Sitophilus oryzae [23] = experiment: Insecticidal activity against Sitophilus oryzae (rice weevil) assessed as mortality at 0.05 ug/g after 20 days by food poison technique relative to acetone-treated control; format: functional
Sitophilus oryzae [24] = experiment: Insecticidal activity against Sitophilus oryzae (rice weevil) assessed as mortality at 3000 ug/g after 15 days by food poison technique relative to acetone-treated control; format: functional
Sitophilus oryzae [25] = experiment: Insecticidal activity against Sitophilus oryzae (rice weevil) assessed as increase in mortality after 5 to 20 days by food poison technique; format: functional, organism-based
Triticum aestivum [26] = experiment: Phytotoxicity in Triticum aestivum (wheat) assessed as root growth at 500 ug/ml pre-soaked for 60 min measured after 48 hr relative to acetone-treated control; format: organism-based; details: in vivo
Sitophilus oryzae [27] = experiment: Repellent activity against Sitophilus oryzae (rice weevil) assessed as settling responses at 125 ug/g preincubated for 12 hr prior to inoculation measured after 24 hr by food preference chamber method (reference value: 49.45 +/- 2.65 %); format: functional
Sitophilus oryzae [28] = experiment: Insecticidal activity against Sitophilus oryzae (rice weevil) assessed as mortality at 3000 ug/g after 10 days by food poison technique relative to acetone-treated control; format: functional
Triticum aestivum [29] = experiment: Phytotoxicity in Triticum aestivum (wheat) assessed as germination rate at 500 ug/ml pre-soaked for 30 min measured after 96 hr relative to acetone-treated control; format: organism-based; details: in vivo
Triticum aestivum [30] = experiment: Phytotoxicity in Triticum aestivum (wheat) assessed as shoot growth at 500 ug/ml pre-soaked for 30 min measured after 96 hr relative to acetone-treated control; format: organism-based; details: in vivo

## C=C1C(=O)O[C@@H]2C[C@@]3(C)CCCC(=C)[C@@H]3C[C@H]12 [ISOALANTOLACTONE]
Sitophilus oryzae [1]
  mortality: 76.19%
Sitophilus oryzae [2]
  mortality: 100%
Triticum aestivum [3]
  Activity: 99.1%
Sitophilus oryzae [4]
  LC50: 610.51 µg/g
Sitophilus oryzae [5]
  mortality: 56.41%
Triticum aestivum [6]
  Activity: 76.9%
Triticum aestivum [7]
  Activity: 63.5%
Sitophilus oryzae [8]
  mortality: 17.95%
Triticum aestivum [9]
  Activity: 82.5%
Sitophilus oryzae [10]
  mortality: 100%
Sitophilus oryzae [11]
  mortality: 30.77%
Sitophilus oryzae [12]
  mortality: 100%
Sitophilus oryzae [13]
  LC50: 655.31 µg/g
Sitophilus oryzae [14]
  mortality: 17.95%
Triticum aestivum [15]
  Activity: 94%
Sitophilus oryzae [16]
  mortality: 58.97%
Sitophilus oryzae [17]
  mortality: 100%
Sitophilus oryzae [18]
  mortality: 42.86%
Triticum aestivum [19]
  Activity: 102%
Sitophilus oryzae [20]
  Activity: 12.13%
Triticum aestivum [21]
  Activity: 83.9%
Sitophilus oryzae [22]
  mortality: 100%
Sitophilus oryzae [23]
  mortality: 100%
Sitophilus oryzae [24]
  mortality: 100%
Sitophilus oryzae [25]
  Activity: Dose-dependent effect
Triticum aestivum [26]
  Activity: 46%
Sitophilus oryzae [27]
  Activity: 13.22%
Sitophilus oryzae [28]
  mortality: 100%
Triticum aestivum [29]
  Activity: 100%
Triticum aestivum [30]
  Activity: 96%

Reference: ChEMBL document CHEMBL3046213, “Repellent, insecticidal and phytotoxic activities of isoalantolactone from Inula racemosa” (Crop Prot, 2006)
